Data set [1] deals with methicillin-susceptible S. aureus (MSSA) strain I20. Nature of the data set: microbe, parasite or virus in culture. Type of data set: cell-based, Staphylococcus aureus. The procedure: To screen for the possible carryover effects of each antibiotic during the MBC determinations, 0.1-mL portions were taken from all tubes with no visible growth. These were subcultured, either undiluted or diluted 10-fold in saline, on Mueller-Hinton agar (MHA) for 36 h at 37°C. The MBC was defined as the lowest concentration that killed 99.9% of the original inoculum. Each MIC and MBC determination was performed three times and the modal values are presented. In additional control experiments, MICs and MBCs were performed in CAMHB supplemented with 50% TCF.

For data set [2] the following is noted: rats, cited from earlier work.
Data set [3] is described as follows: in vivo. The following applies: rat, plasma, ip, 30 mg/kg.
Description: (§1) For each time point, the mean (± SEM) daptomycin levels in plasma from four animals was determined.
For data set [4] the following is noted: rats, 30 mg/kg once daily, cited from earlier work.
A short description of data set [5]: Screening of side effects: serum liver, kidney and muscle markers. Type of data set: in vivo, rat. The procedure: To check for potential side effects of the twice-daily 30 mg/kg daptomycin regimen, serum samples of the daptomycin-treated and control rats were collected at day 8 for determination of liver, kidney, and muscle enzyme markers, namely aspartate aminotransferase (ASAT) and alanine aminotransferase (ALAT) activities, serum creatinine, and creatine kinase, respectively, using standard analytical methods.

A short description of data set [6]: in vivo. The note with it: Wistar, rat, tissue cage fluid (TCF), ip, 30 mg/kg.
Description: as §1
Data set [7] can be described thus: Pharmacokinetic levels in rat tissue cage fluid (TCF).
Description: as §1
Data set [8] in a line: Pharmacokinetic levels in rat plasma. The following applies: 30 mg/kg i.p. twice daily, day 4.
Description: as §1
The conditions of data set [9]: rat, in vivo, cited from earlier work.
In data set [10] the test system is MSSA strain I20. Nature of the data set: Killing kinetic (time-kill) studies. Format: cell-based, Staphylococcus aureus. The following applies: 8 mg/L in CAMHB; 10^6 CFU exponential-phase; 37°C; one representative of three experiments. The procedure:
0.1-mL portions containing 10^6 CFU of strain I20 (obtained from exponential-phase cultures) were added to sterile plastic tubes containing 1 mL of either CSMHB containing 8 mg/L of daptomycin, or CAMHB containing 8 mg/L of oxacillin or vancomycin, in a shaking waterbath at 37°C. The number of viable organisms was determined by subculturing 50 μL of 10-fold diluted portions on MHA after 0, 2, 4, 6, and 24 h of incubation. Colonies were enumerated with a laser colony counter (Spiral System) after 48 h of incubation at 37°C. The detection limit was 2 log10 CFU/mL. […] Each killing kinetic experiment was repeated three times and results from one representative experiment are presented.

Data set [11] deals with MSSA strain I20. Type of data set: in vivo, Staphylococcus aureus. The note with it: Wistar rats, i.p. twice daily for 7 days: daptomycin 30 mg/kg, oxacillin 200 mg/kg, vancomycin 50 mg/kg, mean ± SEM, n = 18-19 cages; for average counts in tissue cages at the end of the 7-day therapy: TCF cultured 12 h after last dose; for reduction in bacterial counts in TCF (delta log10 CFU/mL, day 1 to day 8): P < 0.001 vs untreated. The procedure:
All animal studies of the daptomycin no 1-study were performed in 1991. These animal studies followed ethical guidelines of that time period and received legal approval from the Veterinary Office of the State of Geneva. Subcutaneous surgical implantation of four tissue cages per animal was performed as described by using Wistar rats that were anaesthetised with an intraperitoneal (i.p.) injection of a mixture of ketamine (90 mg/kg) and xylazine (5 mg/kg). At 3 weeks post-implantation, TCF was aspirated and checked for sterility. To establish a chronic S. aureus infection, tissue cages were inoculated with 0.1 mL of saline containing 0.2 × 10^6 to 2 × 10^6 CFU of a washed overnight culture of strain I20 in CAMHB. Three weeks later, all tissue cages containing more than 10^5 CFU/mL of TCF were included in the therapeutic protocols.
Rats infected with strain I20 were randomised to receive (by the i.p. route for 7 days) twice-daily regimens of either daptomycin (30 mg/kg), oxacillin (200 mg/kg), or vancomycin (50 mg/kg), or were left untreated. At 12 h after the last injection of antibiotic, quantitative cultures of 10-fold serially diluted TCF were performed on MHA. To optimise the yield of viable bacteria, TCF were briefly sonicated (60 W, 1 min) to disrupt the biofilm and phagocytic cells before the serial dilutions and plating. Plates were incubated for 24-48 h at 37°C. The detection limit was one colony equivalent to 2 log10 CFU/mL of TCF. The differences in CFU counts between day 1 and day 8 were determined and expressed as delta log10CFU/mL. For each treatment group, results were expressed as means ± standard errors of the means (SEM). Comparison of bacterial counts in the different groups was performed by ANOVA and Newman-Keuls multiple comparisons procedures using Microsoft Excel® 2000 software. Data were considered significant when P was < 0.05 by using two-tailed significance levels.

The test system of data set [12] is methicillin-susceptible S. aureus (MSSA) strain I20. Kind of data set: MIC, standard tube macrodilution (CLSI). The note with it: Staphylococcus aureus. Format: cell-based. The procedure:
The methicillin-susceptible S. aureus (MSSA) strain I20 is a previously described clinical isolate from catheter-related sepsis, which is highly virulent in the rat model of chronic S. aureus tissue cage infection. Strain I20 is uniformly susceptible to all antibiotics except penicillin.
The MICs of oxacillin and vancomycin for strain I20 were determined in cation-adjusted Mueller-Hinton broth (CAMHB) containing 20-25 mg/L Ca^2+ and 10-12.5 mg/L Mg^2+ by the standard tube macrodilution method with an average inoculum of 10^6 CFU/mL as described by the Clinical Laboratory Standards Institute (CLSI). For daptomycin MIC, CAMHB was supplemented with additional calcium to a physiological concentration of 50 mg/L Ca^2+ (CSMHB).
Each MIC and MBC determination was performed three times and the modal values are presented. In additional control experiments, MICs and MBCs were performed in CAMHB supplemented with 50% TCF.

Where [13] appears, read: Staphylococcus aureus, MSSA, CAMHB, lowest concentration killing 99.9% of inoculum, subculture on MHA 36 h 37°C, modal value of 3, read-out: MBC.
[14] abbreviates: twice-daily oxacillin 200 mg/kg or vancomycin 50 mg/kg.

Structures are written as SMILES. ≈ marks a conversion by molar mass, not a printed value. Where “and” joins values, the source holds several entries; their conditions need not be identical. Identical values can stand only once. Like-named read-outs stand apart in the source and are kept apart here.

In data set [1] (methicillin-susceptible strain I20, 36 h), `CCCCCCCCCC(=O)N[C@@H](Cc1c[nH]c2ccccc12)C(=O)N[C@H](CC(N)=O)C(=O)N[C@@H](CC(=O)O)C(=O)N[C@@H]1C(=O)NCC(=O)N[C@@H](CCCN)C(=O)N[C@@H](CC(=O)O)C(=O)N[C@H](C)C(=O)N[C@@H](CC(=O)O)C(=O)NCC(=O)N[C@H](CO)C(=O)N[C@@H]([C@H](C)CC(=O)O)C(=O)N[C@@H](CC(=O)c2ccccc2N)C(=O)O[C@@H]1C` [daptomycin] had an MBC of 1 µg/mL (≈ 0.617 µM). For the same compound, the “TCF AUC0-24h as percentage of plasma AUC0-24h” value in [2] (30 mg/kg daily regimen (printed as daptomycin no 1-study)) is reported as 35%; in [7] (rats, 30 mg/kg twice-daily regimen (printed as daptomycin no 2-study)), 64%. For the same compound, the “TCF AUC0-24h” value in data set [2] (30 mg/kg once daily) is 196 mg·h/L; in data set [7] (rats, 30 mg/kg i.p. twice daily, day 4, AUC0-12 by linear trapezoidal rule multiplied by two) it was 1073 mg·h/L. Further, the “TCF level at 12 h (intermediate value)” value in data set [2] (30 mg/kg once daily) is 10.0 mg/L. Besides, the “mean peak level in TCF” value in [2] (30 mg/kg once daily) is listed as 11.8 mg/L; in data set [7] (uninfected rats, 30 mg/kg i.p. twice daily, day 4, microbiological assay, mean of six animals), 66 mg/L. Further, the “mean trough level in TCF” value in data set [2] (30 mg/kg once daily) is 3.4 mg/L. The compound also showed a level at 12 h in the data set “in vivo [3]” of 9100 ng/mL. Further, the “plasma AUC0-24h” value in data set [4] was 558 mg·h/L; in data set [8] (rats, AUC0-12 by linear trapezoidal rule multiplied by two), 1667 mg·h/L; in [9] (25 mg/kg) it was 278 mg·h/L; in data set [9] (40 mg/kg) it was 605 mg·h/L. Moreover, the peak plasma level in data set [4] (day 4, HPLC) is 141 mg/L. Besides, the trough plasma level in [4] (day 4, HPLC) is recorded as 0 mg/L. For the same compound, in data set [4] (day 4), the “plasma level at 12 h” value was 1 mg/L. Besides, the “exterior signs of toxicity” value in data set [5] (rats receiving twice-daily doses (30 mg/kg)) is reported as “No exterior sign of toxicity”. In [5] (rats treated with high-dose daptomycin (30 mg/kg twice daily, 7 days)), the “liver toxicity (overall assessment)” value is reported as “only mild liver toxicity”. Moreover, in data set [5] (rats, 30 mg/kg i.p. twice daily for 7 days, serum at day 8, n = 5, control 41 ± 11), the “ALAT (alanine aminotransferase) activity in serum” value was 46 ± 9 IU/L. The serum creatinine in data set [5] (rats, 30 mg/kg i.p. twice daily for 7 days, serum at day 8, n = 5, control 50 ± 5) is 53 ± 5 μM/L. In addition, the “ASAT (aspartate aminotransferase) activity in serum” value in [5] (rats, 30 mg/kg i.p. twice daily for 7 days, serum at day 8, n = 5, control 146 ± 36) amounted to 216 ± 24 IU/L. For the same compound, the “creatine kinase in serum” value in [5] (rats, 30 mg/kg i.p. twice daily for 7 days, serum at day 8, n = 5, control 1349 ± 820) came to 1393 ± 886 IU/L. In “in vivo [6]”, this compound gave a level at 4 day of 21000 ng/mL. Also, in [8] (uninfected rats, at 1 h, microbiological assay, mean of four animals), the “mean peak plasma level” value turned out to be 173 mg/L.
By MIC is commonly meant the least concentration at which growth counts as inhibited. Take `Cc1onc(-c2ccccc2)c1C(=O)N[C@@H]1C(=O)N2[C@@H]1SC(C)(C)[C@@H]2C(=O)O` [oxacillin]: in [1] (setting [13]), the MBC came to 1 µg/mL (≈ 2.49 µM). The “trough TCF level” value in [2] (setting [14]) was 5.7 mg/L. In addition, the “time after which reduction in viable counts exceeded 3 log10 CFU/mL” value in the data set with MSSA strain I20 [10] was 4 h. Further, in the data set on MSSA strain I20 [11], the “average counts in tissue cages at the end of the 7-day therapy” value amounted to 5.90 ± 0.25 log10 CFU/mL; the “reduction in bacterial counts in TCF (delta log10 CFU/mL, day 1 to day 8)” value was 0.92 log10 CFU/mL and 0.92 ± 0.21 log10 CFU/mL. Besides, the MIC in data set [12] (CAMHB (20-25 mg/L Ca2+, 10-12.5 mg/L Mg2+), tube macrodilution, inoculum 10^6 CFU/mL, modal value of 3 determinations, read-out: MIC) was found to be 0.5 µg/mL (≈ 1.25 µM).
For `CN[C@H](CC(C)C)C(=O)N[C@H]1C(=O)N[C@@H](CC(N)=O)C(=O)N[C@H]2C(=O)N[C@H]3C(=O)N[C@H](C(=O)N[C@H](C(=O)O)c4cc(O)cc(O)c4-c4cc3ccc4O)[C@H](O)c3ccc(c(Cl)c3)Oc3cc2cc(c3O[C@@H]2O[C@H](CO)[C@@H](O)[C@H](O)[C@H]2O[C@H]2C[C@](C)(N)[C@H](O)[C@H](C)O2)Oc2ccc(cc2Cl)[C@H]1O` [vancomycin], in [1] (setting [13]), the MBC turned out to be 2 µg/mL (≈ 1.38 µM). Also, in [2] (setting [14]), the “peak TCF level” value is on record as 12 mg/L and the “trough TCF level” value was 2 mg/L. The “time after which reduction in viable counts exceeded 3 log10 CFU/mL” value in the data set on MSSA strain I20 [10] was determined as 4 h. Besides, in the data set with MSSA strain I20 [11], the “average counts in tissue cages at the end of the 7-day therapy” value is 5.49 ± 0.21 log10 CFU/mL; the “reduction in bacterial counts in TCF (delta log10 CFU/mL, day 1 to day 8)” value is 0.96 log10 CFU/mL and 0.96 ± 0.24 log10 CFU/mL. In [12], this compound showed an MIC of 1 µg/mL (≈ 0.69 µM).
